Reference: the supplement of paper PMC11919725

How the values were obtained:
Jurkat [1] = assay: confluency relative to DMSO, 18 h (ratio); higher = more viable
Summary of the method: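 Jurkat or primary CD4+/CD8+ T cells (naive, or activated 48 h with CD3/CD28 Dynabeads) were treated 18 h with compound at 1 nM–10 µM (log10 steps) at 37 °C, 5% CO2. Then 100 µl of suspension went into 96-well plates with IncuCyte Cytotox Dye and alamarBlue. Confluency came from IncuCyte phase-contrast imaging (×10, five images per well, hourly over 3 h) using the Basic Analyzer. Values are normalised to mean DMSO controls.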

Jurkat [2] = assay: metabolic activity relative to DMSO, 18 h (ratio); higher = more viable
Summary of the method: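 Metabolic activity was expressed relative to the mean of vehicle control wells. Jurkat cells or primary CD4+/CD8+ T cells, either naive or activated for 48 h with CD3/CD28 Dynabeads, were exposed to compound from 1 nM to 10 µM in log10 steps for 18 h at 37 °C, 5% CO2. Aliquots of 100 µl of suspension were moved to 96-well plates containing alamarBlue (10% v/v final), and fluorescence was read after 3.5 h on a FluoStar Omega at excitation 544 nm and emission 584 nm.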

Jurkat [3] = assay: cytotoxicity relative to DMSO, 18 h (ratio); higher = less cell death (drugs called cytotoxic fall below 1)
Summary of the method: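 Jurkat cells or primary CD4+/CD8+ T cells, either naive or activated for 48 h with CD3/CD28 Dynabeads, were exposed to compound from 1 nM to 10 µM in log10 steps for 18 h at 37 °C, 5% CO2. Aliquots of 100 µl of suspension were then moved to 96-well plates containing IncuCyte Cytotox Dye at 250 nM final. Cytotoxicity was read by IncuCyte fluorescence imaging, with signals corrected for confluency and normalised to the mean of control wells.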

| Compound | confluency (Jurkat [1]; 1 nM) | confluency (Jurkat [1]; 10 nM) | confluency (Jurkat [1]; 100 nM) | confluency (Jurkat [1]; 1000 nM) | confluency (Jurkat [1]; 10000 nM) | metabolic activity (Jurkat [2]; 1 nM) | metabolic activity (Jurkat [2]; 10 nM) | metabolic activity (Jurkat [2]; 100 nM) | metabolic activity (Jurkat [2]; 1000 nM) | metabolic activity (Jurkat [2]; 10000 nM) | cytotoxicity (Jurkat [3]; 1 nM) | cytotoxicity (Jurkat [3]; 10 nM) | cytotoxicity (Jurkat [3]; 100 nM) | cytotoxicity (Jurkat [3]; 1000 nM) | cytotoxicity (Jurkat [3]; 10000 nM) |
| --- | --- | --- | --- | --- | --- | --- | --- | --- | --- | --- | --- | --- | --- | --- | --- |
| CCN(c1cc(-c2ccc(CN3CCOCC3)cc2)cc(C(=O)NCc2c(C)cc(C)[nH]c2=O)c1C)C1CCOCC1 [Tazemetostat] | 0.999 | 0.961 | 0.898 | 0.926 | 0.97 | 0.926 | 0.932 | 0.939 | 1.12 | 1.24 | 0.997 | 0.928 | 0.843 | 0.912 | 1.05 |
| COC1CC2CCC(C)C(O)(O2)C(=O)C(=O)N2CCCCC2C(=O)OC(C(C)CC2CCC(OC(=O)C(C)(CO)CO)C(OC)C2)CC(=O)C(C)C=C(C)C(O)C(OC)C(=O)C(C)CC(C)C=CC=CC=C1C (stereo not given) [Temsirolimus] | 0.971 | 0.876 | 0.899 | 1.02 | 1.05 | 0.977 | 0.927 | 0.903 | 0.93 | 0.762 | 0.937 | 0.781 | 0.787 | 0.958 | 0.925 |
| O=C1CCC(N2C(=O)c3ccccc3C2=O)C(=O)N1 (stereo not given) [Thalidomide] | 0.954 | 0.93 | 1 | 0.99 | 0.975 | 1.17 | 1.26 | 1.27 | 1.13 | 0.925 | 0.981 | 1 | 1.1 | 0.991 | 0.855 |
| CC1CCN(C(=O)CC#N)CC1N(C)c1ncnc2[nH]ccc12 (stereo not given) [Tofacitinib] | 0.957 | 0.941 | 0.983 | 0.961 | 0.844 | 1.23 | 1.27 | 1.02 | 0.928 | 0.908 | 1.01 | 1.06 | 0.922 | 1.02 | 0.851 |
| CC(=O)Nc1cccc(-n2c(=O)n(C3CC3)c(=O)c3c(Nc4ccc(I)cc4F)n(C)c(=O)c(C)c32)c1 [Trametinib] | 1.01 | 1.03 | 1.05 | 1.03 | 1 | 1.12 | 1.08 | 1.15 | 1.1 | 1.02 | 1.14 | 1.12 | 1.26 | 1.12 | 1.02 |
| NC1CC1c1ccccc1 (stereo not given) [Tranylcypromine] | 0.972 | 0.963 | 0.998 | 1.02 | 1 | 1.02 | 0.916 | 1.14 | 1.08 | 0.962 | 0.98 | 0.941 | 1.15 | 1.08 | 0.956 |
| CC(C=CC(=O)NO)=CC(C)C(=O)c1ccc(N(C)C)cc1 (stereo not given) [Trichostatin-A] | 0.999 | 1.03 | 1.03 | 0.99 | 0.96 | 1.21 | 1.17 | 1.17 | 0.97 | 0.904 | 1.27 | 1.25 | 1.22 | 1.06 | 0.98 |
| CN1CCc2c(c3ccccc3n2Cc2ccc(C(=O)NO)cc2)C1 [Tubastatin A] | 0.97 | 0.971 | 0.987 | 0.932 | 0.841 | 1.23 | 1.23 | 1.24 | 1.15 | 1.19 | 1.04 | 1.02 | 1.05 | 0.953 | 0.893 |
| CC(C)Nc1cc(-c2c[nH]c(C(=O)NC(CO)c3cccc(Cl)c3)c2)c(Cl)cn1 (stereo not given) [Ulixertinib] | 1.02 | 1.06 | 0.999 | 1.11 | 0.826 | 1.05 | 1.02 | 0.828 | 0.866 | 0.878 | 0.973 | 1.01 | 0.93 | 0.998 | 0.777 |
| Cc1ncsc1-c1ccc(CNC(=O)C2CC(O)CN2C(=O)C(NC(=O)C2(C#N)CC2)C(C)(C)C)cc1 (stereo not given) [VH298] | 1.01 | 0.995 | 0.998 | 0.962 | 0.901 | 1.04 | 1.08 | 1.13 | 1.14 | 0.896 | 1 | 1.05 | 1.12 | 1.13 | 0.942 |
| Cc1ncsc1-c1ccc(CNC(=O)C2CC(O)CN2C(=O)C(N)C(C)(C)C)cc1 (stereo not given) [VHL ligand 1] | 1.01 | 1.01 | 1.03 | 1.02 | 1.02 | 1.06 | 1.01 | 1.06 | 0.989 | 1.05 | 1.01 | 0.955 | 0.949 | 0.966 | 0.948 |
| CC1(c2nc3c(C(N)=O)cccc3[nH]2)CCCN1 (stereo not given) [Veliparib] | 1.07 | 1.04 | 1.02 | 1.03 | 0.966 | 0.894 | 0.816 | 0.851 | 0.948 | 0.8 | 1.03 | 0.975 | 0.969 | 1.08 | 0.9 |
| CCC1(O)CC2CN(CCc3c([nH]c4ccccc34)C(C(=O)OC)(c3cc4c(cc3OC)N(C=O)C3C(O)(C(=O)OC)C(OC(C)=O)C5(CC)C=CCN6CCC43C65)C2)C1 (stereo not given) [Vincristine] | 0.98 | 0.875 | 0.82 | 0.781 | 0.762 | 0.536 | 0.402 | 0.366 | 0.394 | 0.412 | 0.824 | 0.698 | 0.662 | 0.611 | 0.585 |
| CCn1c(=O)c(-c2ccn[nH]2)cc2c(C)nc(N)nc21 [Voxtalisib] | 1 | 1.01 | 1.02 | 1.02 | 1.04 | 1.05 | 1.02 | 0.993 | 0.924 | 1 | 0.985 | 0.977 | 0.966 | 0.943 | 1.02 |
| CN1CC=CCCOc2cccc(c2)-c2ccnc(n2)Nc2cccc(c2)C1 [Zotiraciclib] | 0.992 | 0.992 | 0.923 | 0.908 | 0.882 | 1.03 | 0.912 | 0.094 | 0.085 | 0.05 | 0.95 | 0.924 | 0.468 | 0.473 | 0.436 |
